# From US20040248860A1, “Use of selective progesterone receptor modulators for the treatment of androgen deficiency” (priority 2002, published 2004)
# Assays:
# [1] = test system: total testosterone levels; assay: Phase II study of J867: total testosterone levels over 12 weeks; type: in vivo, human (female subjects); details: for mean testosterone concentration increase over the treatment period: female subjects, 12 week treatment, change from baseline
# Method: (§1) The effect of SPRMs on testosterone levels and SHBG levels was studied using various doses of J867 over three months. The study was a phase II, multi-center, randomized, double blind, parallel group study of J867 at doses of 5 mg, 10 mg, and 25 mg once a day (QD)compared to placebo. Approximately 120 female subjects between the ages of 18 and 49 were enrolled in the study and randomly assigned to one of the four dosing groups above. During the 12 week study, testosterone and SHBG were measured at screening visits during weeks 2, 4, 8, and 12 of the study.
# FIG. 1 is a graph showing total testosterone levels as a function of time during the study. […] Testosterone concentrations were relatively constant for the group receiving placebo. […] Over the treatment period, the mean testosterone concentrations for the 5 mg QD group increased approximately 7-15 ng/dL; the mean increase for the 10 mg QD group was approximately 15-21 ng/dL; and the mean concentrations observed following treatment with 25 mg QD increased approximately 16-25 ng/dL.
# [2] = test system: sex hormone-binding globulin (SHBG); assay: Phase II study of J867: SHBG levels over 12 weeks; type: in vivo, human (female subjects); details: 12 week treatment
# Method: as §1
# SHBG levels were also measured at weeks 2, 4, 8, and 12 of the study.
# [3] = molecular target: T1, progesterone receptor (Oryctolagus cuniculus, UniProt P06186); details: rabbit model, scale of 0-4; cited from earlier work
# T1 construct: effects of compounds at the progesterone receptor using a rabbit model; from tissue; host or cells: live rabbit (in vivo)
# T1 sequence (P06186 1-930): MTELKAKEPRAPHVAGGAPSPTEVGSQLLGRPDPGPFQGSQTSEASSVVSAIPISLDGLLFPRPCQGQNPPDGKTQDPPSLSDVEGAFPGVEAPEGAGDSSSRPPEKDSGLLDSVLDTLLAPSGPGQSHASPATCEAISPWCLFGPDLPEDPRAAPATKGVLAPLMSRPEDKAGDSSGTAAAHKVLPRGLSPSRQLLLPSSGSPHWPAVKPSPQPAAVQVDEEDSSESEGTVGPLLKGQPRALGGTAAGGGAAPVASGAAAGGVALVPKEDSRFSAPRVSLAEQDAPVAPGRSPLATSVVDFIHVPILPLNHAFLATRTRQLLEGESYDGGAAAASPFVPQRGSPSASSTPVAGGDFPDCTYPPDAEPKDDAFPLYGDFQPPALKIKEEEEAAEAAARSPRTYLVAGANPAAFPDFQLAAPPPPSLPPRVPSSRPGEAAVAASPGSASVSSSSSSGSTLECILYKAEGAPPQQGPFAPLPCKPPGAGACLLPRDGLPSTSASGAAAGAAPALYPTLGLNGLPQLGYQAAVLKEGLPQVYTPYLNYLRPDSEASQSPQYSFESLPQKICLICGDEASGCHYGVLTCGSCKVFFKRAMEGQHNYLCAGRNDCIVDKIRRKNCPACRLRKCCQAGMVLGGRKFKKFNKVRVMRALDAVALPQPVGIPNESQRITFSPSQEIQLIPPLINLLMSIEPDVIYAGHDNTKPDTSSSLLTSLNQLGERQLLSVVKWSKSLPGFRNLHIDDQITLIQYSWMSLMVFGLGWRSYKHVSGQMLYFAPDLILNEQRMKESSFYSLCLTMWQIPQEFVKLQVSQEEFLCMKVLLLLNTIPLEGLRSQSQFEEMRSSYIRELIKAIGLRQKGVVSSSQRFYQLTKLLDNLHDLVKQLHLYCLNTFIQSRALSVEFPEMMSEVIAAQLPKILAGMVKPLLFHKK
Compound,mean testosterone concentration increase over the treatment period ([1]; 5 mg QD) [ng/dL],mean testosterone concentration increase over the treatment period ([1]; 10 mg QD) [ng/dL],mean testosterone concentration increase over the treatment period ([1]; 25 mg QD) [ng/dL],"total testosterone levels (FIG. 1) ([1]; all doses (5, 10, 25 mg QD) compared to placebo)","visit with largest mean increase of testosterone from baseline ([1]; all three dose groups (5, 10, 25 mg QD)) [week]","testosterone concentrations at the end of the study ([1]; all three dose groups, week 12)",mean level of SHBG during treatment ([2]; 5 mg QD),mean level of SHBG during treatment ([2]; 10 mg QD),mean level of SHBG during treatment ([2]; 25 mg QD),McPhail score [3]
"COC[C@]1(OC)CC[C@H]2[C@@H]3CCC4=CC(=O)CCC4=C3[C@@H](c3ccc(/C=N/O)cc3)C[C@@]21C [J867, [4-[17β-Methoxy-17α-(methoxymethyl)-3-oxoestra-4,9-dien-11β-yl]benzaldehyd-(1E)-oxim]]",7 to 15,15 to 21,16 to 25,testosterone levels increased with all doses,2,still elevated above baseline,remained relatively constant,decreased from baseline,decreased from baseline,
CC(=O)[C@H]1CC[C@H]2[C@@H]3CCC4=CC(=O)CC[C@]4(C)[C@H]3CC[C@]12C [progesterone],,,,,,,,,,4
"CC#C[C@]1(O)CC[C@H]2[C@@H]3CCC4=CC(=O)CCC4=C3[C@@H](c3ccc(N(C)C)cc3)C[C@@]21C [RU486, mifepristone]",,,,,,,,,,less than 0.5
